# ChEMBL document CHEMBL1201862, “PubChem BioAssay data set” (2004)
# Activity calls are given as the source filed them.
# Key:
# [1] = biological target: Dual specificity tyrosine-phosphorylation-regulated kinase 1A (Rattus norvegicus, UniProt Q63470); assay type: biochemical, Homo sapiens
# [2] = biological target: Glucose-6-phosphate 1-dehydrogenase (Homo sapiens, UniProt P11413); experiment: inhibition of Homo sapiens G6PD, dose series – biochemical, fluorescence, selectivity assay for P. falciparum G6PD inhibitor project, dose response (AID 504792); assay type: functional
# [3] = biological target: Photoreceptor-specific nuclear receptor (Homo sapiens, UniProt Q9Y5X4); assay type: functional, cell-based;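 also: CHO-S cells with Gal4-NCOR and VP16-NR2E3 two-hybrid luciferase reporter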
# [4] = Counterscreen for inhibitors of Trypanosoma brucei methionyl tRNA synthetase (MetRS): Luminescence-based cell-based high throughput dose response assay to identify compounds that are cytotoxic to Jurkat human T lymphocyte cells.; assay type: functional
# [5] = biological target: T1, Methionyl-tRNA synthetase, putative (Trypanosoma brucei brucei, UniProt Q38C91); assay type: functional, Trypanosoma brucei brucei strain 927/4 GUTat10.1
# T1 sequence (Q38C91 whole entry): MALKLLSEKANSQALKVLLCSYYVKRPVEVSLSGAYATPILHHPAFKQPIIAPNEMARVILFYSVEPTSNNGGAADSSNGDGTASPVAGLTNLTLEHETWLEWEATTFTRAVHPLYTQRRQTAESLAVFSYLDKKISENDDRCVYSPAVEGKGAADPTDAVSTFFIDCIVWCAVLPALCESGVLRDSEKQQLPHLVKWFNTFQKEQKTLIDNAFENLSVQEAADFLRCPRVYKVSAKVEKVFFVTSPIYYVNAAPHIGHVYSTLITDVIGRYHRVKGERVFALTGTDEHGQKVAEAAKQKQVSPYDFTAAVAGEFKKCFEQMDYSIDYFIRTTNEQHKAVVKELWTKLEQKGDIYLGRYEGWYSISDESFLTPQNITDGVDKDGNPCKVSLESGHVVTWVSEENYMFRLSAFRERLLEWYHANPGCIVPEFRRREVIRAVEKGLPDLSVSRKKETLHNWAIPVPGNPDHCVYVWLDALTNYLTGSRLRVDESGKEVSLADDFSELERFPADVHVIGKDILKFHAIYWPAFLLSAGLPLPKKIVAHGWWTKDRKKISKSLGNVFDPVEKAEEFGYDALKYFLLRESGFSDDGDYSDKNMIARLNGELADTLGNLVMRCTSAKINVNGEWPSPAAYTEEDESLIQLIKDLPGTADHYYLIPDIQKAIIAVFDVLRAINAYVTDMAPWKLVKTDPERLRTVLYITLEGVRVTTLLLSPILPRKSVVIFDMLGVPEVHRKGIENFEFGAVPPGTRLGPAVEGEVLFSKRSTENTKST
# [6] = biological target: T1, Methionyl-tRNA synthetase, putative; assay type: functional, Trypanosoma brucei brucei strain 927/4 GUTat10.1; remark: listed apart in the source
# [7] = biological target: T2, Heat shock factor protein 1 (Mus musculus, UniProt P38532); experiment: enhancement of HSF1-driven luciferase signal – cell-based, NIH3T3, luminescence, dose retest, confirmation (AID 435004); assay type: functional;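 also: stress induced by proteasome inhibitor MG132 added 30 min after compound; luciferase reporter driven by HSF1 response element in NIH3T3 cells; actives raise luminescence as potentiators of the MG132 stress response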
# T2 sequence (P38532 whole entry): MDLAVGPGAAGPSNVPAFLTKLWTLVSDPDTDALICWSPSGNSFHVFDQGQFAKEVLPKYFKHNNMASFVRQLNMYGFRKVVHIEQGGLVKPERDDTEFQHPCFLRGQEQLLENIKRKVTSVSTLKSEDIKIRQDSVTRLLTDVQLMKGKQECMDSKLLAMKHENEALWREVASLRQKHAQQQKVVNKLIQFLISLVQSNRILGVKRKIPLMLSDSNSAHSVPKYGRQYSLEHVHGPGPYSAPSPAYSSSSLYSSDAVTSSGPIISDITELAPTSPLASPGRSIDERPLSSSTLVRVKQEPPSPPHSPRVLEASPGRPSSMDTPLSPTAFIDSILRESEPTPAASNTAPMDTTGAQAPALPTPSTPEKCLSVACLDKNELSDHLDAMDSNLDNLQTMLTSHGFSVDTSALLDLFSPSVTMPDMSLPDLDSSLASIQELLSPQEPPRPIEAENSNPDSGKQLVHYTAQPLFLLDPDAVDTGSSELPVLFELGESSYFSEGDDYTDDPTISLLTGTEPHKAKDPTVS
# Coagulation factor XII = biological target: T3, Coagulation factor XII (Homo sapiens, UniProt P00748); assay type: functional;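 also: activated factor XIIa alpha cleaving a fluorogenic AMC peptide substrate; inhibitor potency from loss of enzyme activity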
# T3 sequence (P00748 whole entry): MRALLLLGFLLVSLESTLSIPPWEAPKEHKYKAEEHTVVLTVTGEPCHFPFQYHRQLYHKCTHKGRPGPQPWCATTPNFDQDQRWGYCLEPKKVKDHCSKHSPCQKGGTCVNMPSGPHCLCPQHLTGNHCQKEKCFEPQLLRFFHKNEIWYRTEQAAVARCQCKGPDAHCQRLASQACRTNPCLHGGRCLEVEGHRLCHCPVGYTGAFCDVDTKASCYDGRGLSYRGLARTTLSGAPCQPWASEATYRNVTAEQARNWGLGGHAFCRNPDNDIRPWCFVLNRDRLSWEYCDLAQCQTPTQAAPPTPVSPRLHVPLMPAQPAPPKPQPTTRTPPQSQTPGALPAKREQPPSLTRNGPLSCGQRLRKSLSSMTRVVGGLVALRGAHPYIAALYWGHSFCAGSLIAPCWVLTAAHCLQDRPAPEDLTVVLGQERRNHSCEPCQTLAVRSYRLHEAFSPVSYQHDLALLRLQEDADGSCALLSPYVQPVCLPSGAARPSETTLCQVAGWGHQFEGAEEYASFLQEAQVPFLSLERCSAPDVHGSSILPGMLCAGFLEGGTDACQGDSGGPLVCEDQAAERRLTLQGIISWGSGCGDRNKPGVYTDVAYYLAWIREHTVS
# [8] = biological target: T4, Adenosylmethionine-8-amino-7-oxononanoate aminotransferase (Mycobacterium tuberculosis, UniProt P9WQ81); experiment: Mycobacterium tuberculosis BioA enzyme inhibitor Measured in Biochemical System Using Plate Reader - 2163-02_Inhibitor_Dose_CherryPick_Activity.; assay type: functional, Mycobacterium tuberculosis UT205
# T4 sequence (P9WQ81 whole entry): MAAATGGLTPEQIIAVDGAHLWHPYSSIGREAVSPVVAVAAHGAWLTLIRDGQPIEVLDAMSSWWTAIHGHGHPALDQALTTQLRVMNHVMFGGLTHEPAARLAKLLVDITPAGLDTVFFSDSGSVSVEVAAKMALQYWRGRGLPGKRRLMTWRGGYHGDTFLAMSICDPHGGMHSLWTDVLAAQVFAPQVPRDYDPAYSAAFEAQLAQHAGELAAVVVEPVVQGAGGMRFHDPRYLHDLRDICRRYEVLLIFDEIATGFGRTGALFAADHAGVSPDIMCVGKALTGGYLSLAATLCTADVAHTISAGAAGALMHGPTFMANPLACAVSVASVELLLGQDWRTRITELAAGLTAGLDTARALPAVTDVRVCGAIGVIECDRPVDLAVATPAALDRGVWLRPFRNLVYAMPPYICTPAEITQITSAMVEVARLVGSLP
# [9] = biological target: T5, Short transient receptor potential channel 4 (Mus musculus, UniProt Q9QUQ5); experiment: block of DAMGO-driven TRPC4 calcium entry – cell-based, HEK293 TRPC4/mu-opioid, Fluo-4 calcium, dose response (AID 434942); assay type: functional;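 also: potency of inhibitors blocking the TRPC4 calcium response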
# T5 sequence (Q9QUQ5 whole entry): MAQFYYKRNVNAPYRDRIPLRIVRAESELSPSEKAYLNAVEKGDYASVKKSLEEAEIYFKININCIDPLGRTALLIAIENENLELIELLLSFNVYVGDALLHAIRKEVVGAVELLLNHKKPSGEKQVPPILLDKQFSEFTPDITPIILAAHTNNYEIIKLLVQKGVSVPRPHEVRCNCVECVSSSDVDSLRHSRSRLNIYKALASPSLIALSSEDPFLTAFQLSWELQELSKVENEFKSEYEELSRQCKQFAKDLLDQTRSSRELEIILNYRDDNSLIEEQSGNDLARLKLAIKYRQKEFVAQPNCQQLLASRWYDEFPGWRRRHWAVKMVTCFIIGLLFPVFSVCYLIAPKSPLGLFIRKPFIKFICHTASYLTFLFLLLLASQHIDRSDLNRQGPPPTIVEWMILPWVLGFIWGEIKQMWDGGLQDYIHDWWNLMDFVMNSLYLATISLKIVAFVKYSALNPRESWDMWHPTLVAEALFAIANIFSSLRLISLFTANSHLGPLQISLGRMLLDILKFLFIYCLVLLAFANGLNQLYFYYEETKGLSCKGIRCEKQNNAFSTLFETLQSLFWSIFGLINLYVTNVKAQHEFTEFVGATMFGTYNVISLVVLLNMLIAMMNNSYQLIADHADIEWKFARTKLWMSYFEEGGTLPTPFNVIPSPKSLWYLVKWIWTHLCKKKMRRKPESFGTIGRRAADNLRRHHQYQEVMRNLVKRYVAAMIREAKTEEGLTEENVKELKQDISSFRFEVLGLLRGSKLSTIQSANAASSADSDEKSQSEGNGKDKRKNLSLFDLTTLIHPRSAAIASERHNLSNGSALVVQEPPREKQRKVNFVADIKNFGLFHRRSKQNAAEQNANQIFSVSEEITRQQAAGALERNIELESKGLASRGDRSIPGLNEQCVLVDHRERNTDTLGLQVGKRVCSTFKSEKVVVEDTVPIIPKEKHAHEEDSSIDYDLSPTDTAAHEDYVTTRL
# [10] = biological target: Peroxisome proliferator-activated receptor gamma/Nuclear receptor coactivator 3 (Homo sapiens, UniProt P37231); experiment: (§1) TR-FRET dose response biochemical High Throughput Screening assay for agonists of the steroid receptor coactivator 3 (SRC-3) recruitment by the peroxisome proliferator-activated receptor gamma (PPAR gamma): non-selective agonists. [Related pubchem assays: 1301 (Confirmation screen.), 1048 (Primary screen.)]; assay type: functional
# [11] = biological target: Peroxisome proliferator-activated receptor gamma/Nuclear receptor coactivator 1 (Homo sapiens, UniProt P37231); experiment: as §1, with “1 (SRC-1)” for “3 (SRC-3)”, “assays (depositor defined):AID1300, AID1808, AID504735, AID631]” for “assays: 1301 (Confirmation screen.), 1048 (Primary screen.)]”; assay type: protein assay
# SUMO-activating enzyme [12] = biological target: T6, SUMO-activating enzyme (Homo sapiens, UniProt Q9UBT2); experiment: blockers of UBC9-mediated SUMO conjugation – biochemical, AlphaScreen, SUMOylation inhibitor project, confirmation (AID 2018); assay type: functional
# Major prion protein = Major prion protein (Homo sapiens, UniProt P04156); assay type: functional, cell-based
# Fatty acid synthase [13] = biological target: T7, Fatty acid synthase (Homo sapiens, UniProt P49327); experiment: inhibition of human FAS-TE enzyme activity – biochemical, endpoint fluorescence intensity, uHTS hits, dose response (AID 624327); assay type: functional;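 also: fluorescence from hydrolysis of an O-methyl fluorescein acyl ester substrate by the enzyme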
# SUMO-activating enzyme [14] = biological target: T6, SUMO-activating enzyme; experiment: blockers of SAE1/SAE2–UBC9 SUMO transfer – biochemical, HTRF, uHTS, primary screen (AID 2006); assay type: protein-complex assay
# Fatty acid synthase [15] = biological target: T7, Fatty acid synthase; experiment: inhibition of human FAS-TE enzyme activity – biochemical, kinetic fluorescence intensity, dose response (AID 624326); assay type: functional;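 also: rate of fluorescence rise from hydrolysis of a fluorogenic O-methyl fluorescein ester substrate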
# [16] = biological target: Peroxisome proliferator-activated receptor gamma/Nuclear receptor coactivator 2 (Homo sapiens, UniProt P37231); experiment: TR-FRET dose response biochemical High Throughput Screening assay for agonists of the steroid receptor coactivator 2 (SRC-2) recruitment by the peroxisome proliferator-activated receptor gamma (PPAR gamma): non-selective agonists. [Related pubchem assays: 1297, 1032 ]; assay type: functional
# HEK293 [17] = experiment: cells; assay type: functional, cell-based; conditions: Homo sapiens
# HEK293 [18] = experiment: cells; assay type: functional, cell-based; conditions: Homo sapiens; remark: listed apart in the source
# HEK293 [19] = experiment: inhibition of NOD1-driven NF-kB reporter – cell-based, luminescence, uHTS, primary screen (AID 1578); assay type: functional; conditions: Homo sapiens
# HEK293 [20] = experiment: NOD2 signaling inhibitors in MDP-stimulated cells, cell-based, uHTS, luminescence (AID 2001); assay type: functional; conditions: Homo sapiens
smiles,measurement,setting,value
CCN(CC)CCn1c2ccccc2c(=O)c2c(O)ccc(O)c21,AC50,[1],3.16 µM (active)
same,IC50,[2],64.6 µM (inactive)
COc1ccc(S(=O)(=O)N2CCCCC2)cc1N=C(S)Nc1cccc(Cl)c1C,IC50,[3],0.962 µM (active)
CCOC(=O)c1cccc(NC(=O)Cn2c(CC(=O)NC)nc3ccccc32)c1,IC50,[4],83.3 µM (inactive)
same,IC50,[5],6.01 µM (active)
same,IC50,[6],2.05 µM (active)
same,EC50,[7],> 260 µM (inactive)
CC(=O)Oc1ccc2c(c1)C(=O)c1ccccc1C2=O,AC50,[1],36.2 µM (active)
CC(C)C(NC(=O)CC12CC3CC(CC(C3)C1)C2)C(=O)O (stereo not given),IC50,Coagulation factor XII,> 50 µM (inactive)
CCC1(OC(=O)CN(C)C)C(=O)OCc2c1cc1n(c2=O)Cc2cc3c(N)cccc3nc2-1 (stereo not given),IC50,[3],2.92 µM (active)
O=C(C[C@H]1C[C@@H]2c3cc(NC(=O)c4cccnc4)ccc3O[C@@H]2[C@@H](CO)O1)NCC(F)(F)F,AC50,[8],16.8 µM (active)
N#Cc1c(-c2cccs2)nc(SCc2ccc(Cl)cc2)[nH]c1=O,EC50,[9],4.22 µM (active)
same,EC50,[10],> 79.4 µM (not active)
same,EC50,[11],> 79.4 µM (inactive)
same,IC50,SUMO-activating enzyme [12],9.93 µM (active)
same,IC50,Major prion protein,1.05 µM (active)
same,IC50,Fatty acid synthase [13],6.44 µM (active)
same,IC50,SUMO-activating enzyme [14],18 µM (active)
same,IC50,Fatty acid synthase [15],5.61 µM (active)
same,EC50,[16],> 79.4 µM (not active)
O=C(c1ccccc1F)N1CC[C@@H]2[C@H]1c1cc(Br)ccc1N[C@@H]2CO,AC50,[8],1.53 µM (active)
CCC(NC(=O)c1ccc2nc(Cc3ccc(OC)cc3)oc2c1)c1ccncc1 (stereo not given),IC50,HEK293 [17],8.15 µM (active)
same,IC50,HEK293 [18],16.5 µM (active)
same,EC50,HEK293 [19],4.58 µM (active)
same,IC50,HEK293 [20],12.5 µM (inactive)
CCN1[C@H](C(=O)NCc2ccccc2)[C@@H](CO)[C@@H]2Cn3c(ccc(-c4cccnc4)c3=O)[C@@H]21,AC50,[8],13.2 µM (active)
Cc1cccc(NC(=O)CSCc2c(C)noc2C)c1C,IC50,Coagulation factor XII,> 50 µM (inactive)
O=C(NNc1c(Cl)cc(Cl)cc1Cl)c1nnc(O)c2ccccc12,IC50,Coagulation factor XII,> 50 µM (inactive)
N#Cc1c(O)nc(SCc2ccc(Cl)cc2)nc1-c1cccs1,IC50,HEK293 [17],11.5 µM (active)
same,IC50,HEK293 [18],18.9 µM (active)
same,EC50,HEK293 [19],4.58 µM (active)
same,IC50,cells,> 138 µM (inactive)
same,IC50,HEK293 [20],6.99 µM (inactive)
O=C1N=C(NS(=O)(=O)Cc2ccccc2)S/C1=C/c1ccc2c(c1)OCO2,AC50,[1],2.56 µM (active)
CN(c1ccccc1)S(=O)(=O)c1ccc(NC(=S)NC(=O)c2ccccc2)cc1,IC50,Coagulation factor XII,> 50 µM (inactive)
